Laboratory results from ChEMBL document CHEMBL5291721, “A preclinical secondary pharmacology resource illuminates target-adverse drug reaction associations of marketed drugs” (Nat Commun, 2023).

Experiments:
[1] = molecular target: 5-hydroxytryptamine receptor 2A (Homo sapiens, UniProt P28223); type: functional, cell-based
[2] = molecular target: T1, Neuropeptide Y receptor type 1 (Homo sapiens, UniProt P25929)
T1 sequence (P25929 whole entry): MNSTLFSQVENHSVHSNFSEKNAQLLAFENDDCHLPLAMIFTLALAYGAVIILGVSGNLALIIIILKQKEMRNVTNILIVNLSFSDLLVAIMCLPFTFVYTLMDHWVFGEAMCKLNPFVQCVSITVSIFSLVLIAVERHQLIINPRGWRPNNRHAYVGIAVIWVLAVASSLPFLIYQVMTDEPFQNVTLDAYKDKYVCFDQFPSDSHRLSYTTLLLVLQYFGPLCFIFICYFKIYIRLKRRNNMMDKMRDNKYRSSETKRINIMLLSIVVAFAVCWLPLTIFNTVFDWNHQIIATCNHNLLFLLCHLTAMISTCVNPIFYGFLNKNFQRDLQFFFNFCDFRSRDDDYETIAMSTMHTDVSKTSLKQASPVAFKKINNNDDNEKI

[3] = molecular target: T2, Glucocorticoid receptor (Homo sapiens, UniProt P04150)
T2 sequence (P04150 whole entry): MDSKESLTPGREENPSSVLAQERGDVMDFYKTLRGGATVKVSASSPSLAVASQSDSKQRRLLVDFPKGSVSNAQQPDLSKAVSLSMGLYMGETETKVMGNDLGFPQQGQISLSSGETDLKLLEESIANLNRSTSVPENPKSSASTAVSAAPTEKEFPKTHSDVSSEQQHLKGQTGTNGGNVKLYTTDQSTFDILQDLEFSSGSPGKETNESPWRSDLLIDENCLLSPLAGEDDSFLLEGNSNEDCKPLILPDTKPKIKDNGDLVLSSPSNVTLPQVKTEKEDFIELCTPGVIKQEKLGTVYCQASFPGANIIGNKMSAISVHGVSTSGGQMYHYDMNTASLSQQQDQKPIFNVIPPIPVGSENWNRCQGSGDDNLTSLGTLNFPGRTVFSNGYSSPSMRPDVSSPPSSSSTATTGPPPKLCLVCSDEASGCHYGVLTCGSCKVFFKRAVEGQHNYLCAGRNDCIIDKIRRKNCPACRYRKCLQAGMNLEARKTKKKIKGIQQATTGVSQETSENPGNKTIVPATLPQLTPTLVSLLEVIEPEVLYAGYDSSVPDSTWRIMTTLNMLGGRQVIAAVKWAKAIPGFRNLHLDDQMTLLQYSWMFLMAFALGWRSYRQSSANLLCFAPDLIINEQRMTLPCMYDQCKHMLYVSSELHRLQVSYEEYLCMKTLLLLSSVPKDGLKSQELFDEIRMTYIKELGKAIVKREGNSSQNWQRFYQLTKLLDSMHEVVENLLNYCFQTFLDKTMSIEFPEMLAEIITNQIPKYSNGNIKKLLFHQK

[4] = molecular target: Kappa-type opioid receptor (Homo sapiens, UniProt P41145)
[5] = molecular target: Sodium-dependent serotonin transporter (Homo sapiens, UniProt P31645)
[6] = molecular target: T3, Adenosine receptor A3 (Homo sapiens, UniProt P0DMS8)
T3 sequence (P0DMS8 whole entry): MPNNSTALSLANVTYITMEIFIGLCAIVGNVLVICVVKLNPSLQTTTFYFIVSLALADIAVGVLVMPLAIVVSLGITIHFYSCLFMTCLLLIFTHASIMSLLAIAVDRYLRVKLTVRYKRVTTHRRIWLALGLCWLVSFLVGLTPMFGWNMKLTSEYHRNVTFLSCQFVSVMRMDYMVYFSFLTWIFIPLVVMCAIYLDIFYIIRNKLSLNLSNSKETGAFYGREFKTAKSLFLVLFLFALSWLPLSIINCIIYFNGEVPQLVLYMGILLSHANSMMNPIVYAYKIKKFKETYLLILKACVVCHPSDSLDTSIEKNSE

[7] = molecular target: T4, Alpha-1A adrenergic receptor (Homo sapiens, UniProt P35348); type: functional, cell-based
T4 sequence (P35348 whole entry): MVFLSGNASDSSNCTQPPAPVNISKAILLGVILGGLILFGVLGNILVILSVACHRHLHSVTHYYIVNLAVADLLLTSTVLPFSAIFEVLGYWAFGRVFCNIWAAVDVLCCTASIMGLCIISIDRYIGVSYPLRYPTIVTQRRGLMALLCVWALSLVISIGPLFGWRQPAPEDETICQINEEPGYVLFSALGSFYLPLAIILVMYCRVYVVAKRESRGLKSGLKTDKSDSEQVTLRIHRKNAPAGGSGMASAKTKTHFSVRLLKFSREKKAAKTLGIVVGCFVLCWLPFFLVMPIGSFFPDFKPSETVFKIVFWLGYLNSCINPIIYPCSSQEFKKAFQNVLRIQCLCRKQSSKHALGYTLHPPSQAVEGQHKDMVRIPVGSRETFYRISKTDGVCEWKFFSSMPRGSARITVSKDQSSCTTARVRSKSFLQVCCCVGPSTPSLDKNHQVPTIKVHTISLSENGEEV

[8] = molecular target: Histamine H3 receptor (Homo sapiens, UniProt Q9Y5N1)
[9] = molecular target: T5, Amine oxidase [flavin-containing] A (Homo sapiens, UniProt P21397); type: functional
T5 sequence (P21397 whole entry): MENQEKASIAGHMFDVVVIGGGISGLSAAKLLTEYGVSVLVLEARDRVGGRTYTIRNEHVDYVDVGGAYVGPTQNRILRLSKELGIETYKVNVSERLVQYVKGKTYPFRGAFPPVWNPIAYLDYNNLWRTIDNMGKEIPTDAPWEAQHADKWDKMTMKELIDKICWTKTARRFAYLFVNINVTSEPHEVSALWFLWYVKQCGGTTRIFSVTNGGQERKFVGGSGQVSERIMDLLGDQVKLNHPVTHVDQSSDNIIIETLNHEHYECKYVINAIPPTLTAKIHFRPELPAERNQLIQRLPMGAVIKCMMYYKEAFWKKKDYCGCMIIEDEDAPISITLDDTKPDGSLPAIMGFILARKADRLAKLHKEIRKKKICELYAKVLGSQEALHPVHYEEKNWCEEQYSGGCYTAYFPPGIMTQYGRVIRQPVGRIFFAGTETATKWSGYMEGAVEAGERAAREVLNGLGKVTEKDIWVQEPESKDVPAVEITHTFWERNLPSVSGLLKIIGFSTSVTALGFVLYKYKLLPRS

[10] = molecular target: cGMP-inhibited 3',5'-cyclic phosphodiesterase 3A (Homo sapiens, UniProt Q14432); type: functional
Also: assay procedure not described here.

Sequence of Histamine H3 receptor (Q9Y5N1 whole entry): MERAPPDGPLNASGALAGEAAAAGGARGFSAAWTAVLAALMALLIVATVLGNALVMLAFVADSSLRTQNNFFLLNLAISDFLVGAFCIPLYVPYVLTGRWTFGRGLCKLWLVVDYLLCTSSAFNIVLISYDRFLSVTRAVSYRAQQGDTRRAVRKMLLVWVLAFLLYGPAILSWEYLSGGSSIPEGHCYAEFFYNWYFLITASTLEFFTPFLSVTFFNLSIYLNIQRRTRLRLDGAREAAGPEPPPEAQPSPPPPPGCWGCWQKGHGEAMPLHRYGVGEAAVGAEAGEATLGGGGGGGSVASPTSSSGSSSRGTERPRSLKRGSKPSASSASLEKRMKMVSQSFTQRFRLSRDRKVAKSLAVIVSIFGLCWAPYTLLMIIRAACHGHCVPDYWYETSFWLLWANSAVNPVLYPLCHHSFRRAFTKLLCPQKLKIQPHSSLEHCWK
Sequence of Kappa-type opioid receptor (P41145 whole entry): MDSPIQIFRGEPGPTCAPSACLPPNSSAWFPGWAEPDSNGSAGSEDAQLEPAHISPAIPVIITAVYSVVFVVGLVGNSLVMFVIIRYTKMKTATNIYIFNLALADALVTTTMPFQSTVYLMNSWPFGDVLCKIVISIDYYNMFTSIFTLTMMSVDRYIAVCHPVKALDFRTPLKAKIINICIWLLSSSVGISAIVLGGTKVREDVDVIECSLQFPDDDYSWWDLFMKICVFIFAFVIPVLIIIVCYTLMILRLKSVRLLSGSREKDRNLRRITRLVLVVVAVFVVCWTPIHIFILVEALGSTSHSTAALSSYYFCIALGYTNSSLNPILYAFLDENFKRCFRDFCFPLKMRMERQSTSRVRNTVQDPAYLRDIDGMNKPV
Sequence of Sodium-dependent serotonin transporter (P31645 whole entry): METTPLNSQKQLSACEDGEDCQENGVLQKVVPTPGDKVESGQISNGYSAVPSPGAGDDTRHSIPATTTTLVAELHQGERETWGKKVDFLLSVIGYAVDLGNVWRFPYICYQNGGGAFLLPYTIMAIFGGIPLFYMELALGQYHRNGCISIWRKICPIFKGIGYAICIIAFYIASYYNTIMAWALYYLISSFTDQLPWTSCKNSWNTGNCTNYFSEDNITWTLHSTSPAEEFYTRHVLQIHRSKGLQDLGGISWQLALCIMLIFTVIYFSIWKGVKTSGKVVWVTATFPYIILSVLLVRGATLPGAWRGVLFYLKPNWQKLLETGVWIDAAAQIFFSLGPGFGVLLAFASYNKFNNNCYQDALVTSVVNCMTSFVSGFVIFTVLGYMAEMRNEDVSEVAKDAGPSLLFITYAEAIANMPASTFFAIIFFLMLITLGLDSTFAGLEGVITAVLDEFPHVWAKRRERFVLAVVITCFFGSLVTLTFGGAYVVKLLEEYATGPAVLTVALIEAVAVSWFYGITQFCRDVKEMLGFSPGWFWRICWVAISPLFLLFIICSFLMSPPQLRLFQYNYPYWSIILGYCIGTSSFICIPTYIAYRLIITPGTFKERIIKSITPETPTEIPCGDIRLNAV
Sequence of cGMP-inhibited 3',5'-cyclic phosphodiesterase 3A (Q14432 whole entry): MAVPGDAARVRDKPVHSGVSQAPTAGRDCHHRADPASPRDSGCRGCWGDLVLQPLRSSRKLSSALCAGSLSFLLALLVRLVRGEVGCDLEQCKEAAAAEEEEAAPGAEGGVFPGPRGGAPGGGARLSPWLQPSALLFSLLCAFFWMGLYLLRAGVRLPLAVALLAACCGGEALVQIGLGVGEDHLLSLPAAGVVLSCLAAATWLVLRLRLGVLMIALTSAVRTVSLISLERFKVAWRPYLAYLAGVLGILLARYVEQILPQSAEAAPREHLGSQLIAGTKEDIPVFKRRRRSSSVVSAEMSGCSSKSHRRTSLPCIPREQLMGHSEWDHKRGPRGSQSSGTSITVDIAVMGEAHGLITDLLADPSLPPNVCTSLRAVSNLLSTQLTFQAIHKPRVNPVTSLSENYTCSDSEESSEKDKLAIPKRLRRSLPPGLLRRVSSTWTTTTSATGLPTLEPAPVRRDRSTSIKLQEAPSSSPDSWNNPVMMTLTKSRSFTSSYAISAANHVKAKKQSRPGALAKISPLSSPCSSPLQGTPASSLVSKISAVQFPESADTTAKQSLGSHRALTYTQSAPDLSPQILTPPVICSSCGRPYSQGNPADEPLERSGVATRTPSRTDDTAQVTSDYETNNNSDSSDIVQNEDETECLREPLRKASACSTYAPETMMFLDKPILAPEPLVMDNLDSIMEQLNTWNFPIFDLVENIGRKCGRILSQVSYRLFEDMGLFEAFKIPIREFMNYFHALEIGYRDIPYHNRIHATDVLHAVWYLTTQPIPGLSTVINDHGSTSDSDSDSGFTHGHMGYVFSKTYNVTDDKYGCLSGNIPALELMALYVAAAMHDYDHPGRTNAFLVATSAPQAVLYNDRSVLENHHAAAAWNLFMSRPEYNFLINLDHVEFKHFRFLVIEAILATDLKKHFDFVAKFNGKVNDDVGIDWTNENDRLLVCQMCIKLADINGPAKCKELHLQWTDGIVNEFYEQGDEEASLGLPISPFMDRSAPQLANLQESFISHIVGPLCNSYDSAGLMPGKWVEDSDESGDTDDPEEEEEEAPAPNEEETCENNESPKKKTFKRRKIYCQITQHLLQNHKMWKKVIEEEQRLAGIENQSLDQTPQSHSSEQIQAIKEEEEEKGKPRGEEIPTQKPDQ
Sequence of 5-hydroxytryptamine receptor 2A (P28223 whole entry): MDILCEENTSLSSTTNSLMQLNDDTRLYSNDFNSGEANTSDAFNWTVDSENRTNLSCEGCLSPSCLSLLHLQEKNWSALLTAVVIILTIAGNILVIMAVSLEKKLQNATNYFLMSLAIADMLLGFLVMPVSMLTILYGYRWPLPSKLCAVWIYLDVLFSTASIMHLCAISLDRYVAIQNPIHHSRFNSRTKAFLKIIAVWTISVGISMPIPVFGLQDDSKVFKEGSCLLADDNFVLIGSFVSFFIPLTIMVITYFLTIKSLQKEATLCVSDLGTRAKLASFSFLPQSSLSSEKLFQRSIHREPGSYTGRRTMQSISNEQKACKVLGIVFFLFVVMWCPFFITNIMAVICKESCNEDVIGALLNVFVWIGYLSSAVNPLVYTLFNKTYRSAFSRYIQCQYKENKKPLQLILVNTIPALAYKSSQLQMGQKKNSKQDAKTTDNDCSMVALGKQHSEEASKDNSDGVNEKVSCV

AC50 [2] [µM]	AC50 [3] [µM]	AC50 [4] [µM]	AC50 [5] [µM]	SMILES	AC50 [1] [µM]	AC50 [6] [µM]	AC50 [7] [µM]	AC50 [8] [µM]	AC50 [9] [µM]	AC50 [10] [µM]
> 30	> 30	> 30	> 30	Cc1nc([N+](=O)[O-])cn1-c1ccc([N+](=O)[O-])cc1 [NITREFAZOLE]	> 30					
				CC(C)(S)[C@@H](N)C(=O)O [PENICILLAMINE]		> 30	> 30	> 30	> 30	> 30
				C[N+](C)(C)CCO [CHOLINE]		> 30	> 30	> 30	> 30	> 30
				Oc1c(Cl)cc(Cl)c2cccnc12 [CHLOROXINE]		> 30	> 30	> 30	> 30	> 30
				CN(C)S(=O)(=O)c1ccc2c(c1)N(CCCN1CCC(CCO)CC1)c1ccccc1S2 [PIPOTIAZINE]		> 30	0.0032	> 30	> 30	> 30
				CCC(=O)NCC[C@@H]1CCc2ccc3c(c21)CCO3 [RAMELTEON]		> 30	> 30	> 30	> 30	> 30
			0.24	CN(C)CCC=C1c2ccccc2C(C)(C)c2ccccc21	4.5					
				CN(C)CCn1nnnc1SCC1=C(C(=O)O)N2C(=O)[C@@H](NC(=O)Cc3csc(N)n3)[C@H]2SC1 [CEFOTIAM]		> 30	> 30	> 30	> 30	> 30
				Cc1cc(C#N)cc(C)c1Oc1nc(Nc2ccc(C#N)cc2)nc(N)c1Br [ETRAVIRINE]			> 3	> 30	> 30	> 30
				CC(=O)Nc1ccc(O)cc1 [ACETAMINOPHEN]		> 30	> 30	> 30	> 10	> 30
				CCOC(=O)[C@H](CCc1ccccc1)N[C@@H](C)C(=O)N1[C@H](C(=O)O)C[C@H]2CCCC[C@@H]21 [TRANDOLAPRIL]		> 30	> 30	> 30	> 30	> 30
				N[C@H](C(=O)O)[C@H](O)c1ccc(O)c(O)c1 [DROXIDOPA]		> 30		> 30	> 30	> 30
> 30	> 30	> 30	> 30	Nc1nc(NC2CC2)c2ncn([C@H]3C=C[C@@H](CO)C3)c2n1 [ABACAVIR]	> 30					
				COC(c1ccccc1)(c1ccccc1)[C@H](Oc1nc(C)cc(C)n1)C(=O)O [AMBRISENTAN]		> 30	> 30	> 30	> 30	> 30
				CN(C)CCN1C(=O)c2ccccc2N(C)c2ccccc21 [DIBENZEPIN]		> 30		> 30	> 30	> 30
				CC(=O)N[C@@H]1[C@@H](O)[C@H](O)[C@@H](CO)O[C@H]1O [N-ACETYLGLUCOSAMINE]		> 30	> 30	> 30	> 30	> 30
				CCCCCCOc1nsnc1C1=CCCN(C)C1 [XANOMELINE]		> 30		3.6		> 30
				CN(C)CC(c1ccc(O)cc1)C1(O)CCCCC1 (stereo unspecified) [DESVENLAFAXINE]		> 30	> 30	> 30	> 30	> 30
> 30	> 30	> 30	> 30	CC(=O)NCCCS(=O)(=O)O [ACAMPROSATE]	> 30					
				CCc1oc2ccccc2c1C(=O)c1cc(I)c(O)c(I)c1 [BENZIODARONE]				28.3	> 30	> 30
> 30	> 30	> 30	> 30	CCCCN1C[C@H](O)[C@@H](O)[C@H](O)[C@H]1CO	> 30					
				C=C[C@H]1C[N@@]2CC[C@H]1C[C@H]2[C@H](O)c1ccnc2ccc(OC)cc12 [QUININE]		> 30		> 30	> 30	> 30
> 30	> 30	> 30	> 30	COc1cc2nc(N(C)CCCNC(=O)C3CCCO3)nc(N)c2cc1OC (stereo unspecified) [ALFUZOSIN]	> 30					

SMILES	AC50 [2] [µM]	AC50 [3] [µM]	AC50 [4] [µM]	AC50 [5] [µM]	AC50 [1] [µM]	AC50 [6] [µM]	AC50 [7] [µM]	AC50 [8] [µM]	AC50 [9] [µM]	AC50 [10] [µM]
C[N+]1(C)CCC(OC(=O)C(O)(c2ccccc2)C2CCCC2)C1 (stereo unspecified) [GLYCOPYRRONIUM BROMIDE]		> 30								> 30
CNC1Cc2ccccc2N(C)c2ccccc21 (stereo unspecified) [METAPRAMINE]				14	> 30					
COc1cc(NC(C)CCCN)c2ncccc2c1 (stereo unspecified) [PRIMAQUINE]	> 30					14.7				22.5
O=C(O[C@H]1C[C@H]2CC[C@@H](C1)[N+]21CCCC1)C(O)(c1ccccc1)c1ccccc1 [TROSPIUM]	> 30		> 30	> 30	> 30					
COc1ccc(CC(C)(C)NC[C@H](O)c2cc(O)cc3c2OCC(=O)N3)cc1 [OLODATEROL]				0.0608	> 30					
c1cnc(N2CCN(Cc3ccc4c(c3)OCO4)CC2)nc1 [PIRIBEDIL]				12	> 30					
COCCCN1CCC(NC(=O)c2cc(Cl)c(N)c3c2OCC3)CC1 [PRUCALOPRIDE]				> 30	> 30		> 30	> 30	> 30	> 30
O=C(Cc1ccc(-c2ccccc2)cc1)Nc1ccccn1 [DIFENPIRAMIDE]			> 30		> 30		> 10	> 30	> 30	> 30
